These results are taken from patent US8501732B2, “Aminomethyl quinolone compounds” (Hoffmann-La Roche Inc., priority 2011, dated 2013).

Structures can show the parent of a compound that is named as a salt.

In general, EC50 refers to the concentration needed to bring the measured effect to its halfway point. Higher therefore signals a need for much substance. In general, IC50 refers to the concentration at which inhibition is half-maximal. The low end stands for greater potency, the high end for weaker potency.

The test system of assay [1] is phospho(Ser63)-c-jun in HK-2 cells. The assay can be described thus: Cell-Based Assay for JNK Inhibitors (in-cell ELISA, phospho(Ser63)-c-jun after TNFα). As to conditions: HK-2 cells (human proximal tubule cells), 60 minutes compound, then 10 ng/mL TNFα for 30 minutes. The method in brief:
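HK-2 human proximal tubule cells were seeded at 40,000 cells/well, cultured 24 h, then serum-starved 16–24 h before TNFα stimulation with compound. Phospho(Ser63)-c-jun was quantified by in-cell ELISA on fixed, permeabilised cells, using a rabbit phospho-specific primary (overnight, 4 °C) and an HRP-linked anti-rabbit secondary. Absorbance was read at 450 nm.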
On the technique in general: In an ELISA, binding on a coated surface is turned into a signal by an enzyme label.

For a further assay, the target named is JNK1 (Homo sapiens (Human), UniProt P45983). Nature of the assay: In Vitro JNK1 Assay (TR-FRET, phosphorylation of GST-c-Jun). It counts as biochemical. As to conditions: 0.2 nM active JNK1 kinase, 26.7 nM GST-c-Jun, 2 μM ATP, 30 min at room temperature. The method in brief: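 IC50 derived from percent inhibition across 10 serially diluted concentrations, with TR-FRET detection of phospho-c-Jun via an anti-phospho-c-Jun antibody after EDTA stop. Substrate was GST-c-Jun 1-79, reacted 30 min at room temperature in pH 7.0 HEPES buffer with MgCl2, DTT, vanadate and BSA.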
Chain of JNK1 (P45983 whole entry): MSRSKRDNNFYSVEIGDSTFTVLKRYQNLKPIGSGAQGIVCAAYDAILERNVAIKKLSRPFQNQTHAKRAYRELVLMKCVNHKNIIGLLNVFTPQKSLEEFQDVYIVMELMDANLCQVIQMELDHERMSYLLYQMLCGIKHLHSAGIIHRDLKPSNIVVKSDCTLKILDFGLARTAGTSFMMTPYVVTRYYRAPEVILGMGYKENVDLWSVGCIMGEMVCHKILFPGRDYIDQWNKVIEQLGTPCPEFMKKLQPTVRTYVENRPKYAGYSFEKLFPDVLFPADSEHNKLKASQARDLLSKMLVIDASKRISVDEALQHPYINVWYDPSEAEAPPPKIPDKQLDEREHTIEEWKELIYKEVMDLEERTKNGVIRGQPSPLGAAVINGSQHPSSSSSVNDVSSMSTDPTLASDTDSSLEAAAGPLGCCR

In turn, `CN(C)C(=O)c1c(CNC(=O)c2cnc(N3CCOCC3)s2)c(=O)c2ccc(Cl)cc2n1-c1ccccc1` [Example I-14, 7-Chloro-3-{[(2-morpholin-4-yl-thiazole-5-carbonyl)-amino]-methyl}-4-oxo-1-phenyl-1,4-dihydro-quinoline-2-carboxylic acid dimethylamide] displayed an EC50 in assay [1] of 25000 nM. For the same compound, half-maximal inhibition against JNK1 (IC50) was put at 36 nM.

In the case of `O=C(NCc1cn(-c2ccccc2)c2cc(Cl)ccc2c1=O)c1ccc(N2CCC(CO)CC2)nc1` [Example I-67, 4-Hydroxymethyl-3,4,5,6-tetrahydro-2H-[1,2′]bipyridinyl-5′-carboxylic acid (7-chloro-4-oxo-1-phenyl-1,4-dihydro-quinolin-3-ylmethyl)-amide], in assay [1], the EC50 stood at 6300 nM. Also, at JNK1, 20 nM corresponded to half-maximal inhibition (IC50).

Take `O=C(NCc1cn(-c2ccccc2)c2cc(Cl)ccc2c1=O)c1ccc2nc[nH]c2c1` [Example I-33, 3H-Benzoimidazole-5-carboxylic acid (7-chloro-4-oxo-1-phenyl-1,4-dihydro-quinolin-3-ylmethyl)-amide]: a half-maximal effect in assay [1] (EC50) was put at 100000 nM. In addition, 41 nM corresponded to half-maximal inhibition at JNK1 (IC50).

In turn, `O=C(NCc1cn(-c2ccccc2)c2cc(Cl)ccc2c1=O)c1ccc(N2CCC(O)CC2)nc1` [Example I-76, 4-Hydroxy-3,4,5,6-tetrahydro-2H-[1,2′]bipyridinyl-5′-carboxylic acid (7-chloro-4-oxo-1-phenyl-1,4-dihydro-quinolin-3-ylmethyl)-amide] displayed a 50% effective concentration (EC50) in assay [1] of 48000 nM. Besides, the concentration for half-maximal inhibition (IC50) against JNK1 came to 34 nM.

On to `COC(=O)c1c(CNC(=O)c2ccc(-c3ncc[nH]3)cc2)c(=O)c2ccc(C(F)(F)F)nc2n1-c1ccccc1` [Example I-153, 3-{[4-(1H-Imidazol-2-yl)-benzoylamino]-methyl}-4-oxo-1-phenyl-7-trifluoromethyl-1,4-dihydro-[1,8]naphthyridine-2-carboxylic acid methyl ester], for which it took 4600 nM to reach a half-maximal effect in assay [1] (EC50). Further, half-maximal inhibition against JNK1 (IC50) was put at 23 nM.

Take `Cn1cc(C(=O)NCc2c(-c3ncco3)n(-c3ccccc3)c3ncccc3c2=O)cn1` [Example I-11, 1-Methyl-1H-pyrazole-4-carboxylic acid (2-oxazol-2-yl-4-oxo-1-phenyl-1,4-dihydro-[1,8]naphthyridin-3-ylmethyl)-amide]: the 50% effective concentration (EC50) in assay [1] is 15000 nM. Moreover, half-maximal inhibition on JNK1 (IC50) required 47 nM.

`Cn1cc(C(=O)NCc2cn(-c3ccccc3F)c3cc(F)ccc3c2=O)cn1` [Example I-104, 1-Methyl-1H-pyrazole-4-carboxylic acid [7-fluoro-1-(2-fluoro-phenyl)-4-oxo-1,4-dihydro-quinolin-3-ylmethyl]-amide] gave a concentration for a half-maximal effect (EC50) in assay [1] of 100000 nM. At JNK1, this compound displayed an IC50 of 120 nM.

In assay [1], `COC(=O)c1c(CNC(=O)c2ccc(F)cc2)c(=O)c2ccc(OC)cc2n1-c1ccccc1` [Example I-166, 3-[(4-Fluoro-benzoylamino)-methyl]-7-methoxy-4-oxo-1-phenyl-1,4-dihydro-quinoline-2-carboxylic acid methyl ester] had a concentration for a half-maximal effect (EC50) of 100000 nM. Also, the half-inhibitory concentration (IC50) at JNK1 came out at 73 nM.

`CN(C)C(=O)c1c(CNC(=O)c2ccc(N3CCCCC3)nc2)c(=O)c2ccc(Cl)cc2n1-c1ccccc1` [Example I-28, 3,4,5,6-Tetrahydro-2H-[1,2′]bipyridinyl-5′-carboxylic acid (7-chloro-2-dimethylcarbamoyl-4-oxo-1-phenyl-1,4-dihydro-quinolin-3-ylmethyl)-amide trifluoroacetate salt] returned an EC50 in assay [1] of 9700 nM. Moreover, on JNK1, half-maximal inhibition (IC50) required 91 nM.

As for `COC(=O)c1c(CNC(=O)c2cccnc2)c(=O)c2ccc(OC)cc2n1-c1ccccc1` [Example I-165, 7-Methoxy-4-oxo-1-phenyl-3-{[(pyridine-3-carbonyl)-amino]-methyl}-1,4-dihydro-quinoline-2-carboxylic acidmethyl ester], in assay [1], the EC50 came out at 100000 nM. The compound further yielded a 50% inhibitory concentration (IC50) against JNK1 of 65 nM.

Compound `CN(C)C(=O)c1c(CNC(=O)c2ccc(N3CCC(CCO)CC3)nc2)c(=O)c2ccc(Cl)cc2n1-c1ccccc1` [Example I-25, 4-(2-Hydroxy-ethyl)-3,4,5,6-tetrahydro-2H-[1,2′]bipyridinyl-5′-carboxylic acid (7-chloro-2-dimethylcarbamoyl-4-oxo-1-phenyl-1,4-dihydro-quinolin-3-ylmethyl)-amide] displayed an EC50 in assay [1] of 9600 nM. This compound registered a half-inhibitory concentration (IC50) against JNK1 of 51 nM.

`COC(=O)c1c(CNC(=O)c2ccc(S(C)(=O)=O)cc2)c(=O)c2ccc(Cl)cc2n1-c1ccccc1` [Example I-109, 7-chloro-3-[(4-methanesulfonyl-benzoylamino)-methyl]-4-oxo-1-phenyl-1,4-dihydroquin-oline-2-carboxylic acid methyl ester] displayed an EC50 in assay [1] of 5700 nM. The compound also yielded a 50% inhibitory concentration (IC50) against JNK1 of 4 nM.

As for `CN(C)C(=O)c1c(CNC(=O)c2ccn(Cc3ccccc3)c(=O)c2)c(=O)c2ccc(Cl)cc2n1-c1ccccc1` [Example I-22, 3-{[(1-Benzyl-2-oxo-1,2-dihydro-pyridine-4-carbonyl)-amino]-methyl}-7-chloro-4-oxo-1-phenyl-1,4-dihydro-quinoline-2-carboxylic acid dimethylamide], in assay [1], it took 25000 nM to reach a half-maximal effect (EC50). At JNK1, this compound came in with a 50% inhibitory concentration (IC50) of 330 nM.

With `COC(=O)c1c(CNC(=O)c2ccc(-c3ncc[nH]3)cc2)c(=O)c2ccc(Cl)cc2n1-c1ccccc1` [Example I-114, 7-Chloro-3-{[4-(1H-imidazol-2-yl)-benzoylamino]-methyl}-4-oxo-1-phenyl-1,4-dihydro-quinoline-2-carboxylic acid methyl ester], the response in assay [1] was half-maximal at 4100 nM (EC50). In addition, it took 7 nM to reach half-maximal inhibition against JNK1 (IC50).

`NS(=O)(=O)c1ccc(C(=O)NCc2cn(-c3ccccc3)c3cc(Cl)ccc3c2=O)cc1` [Example I-36, N-(7-Chloro-4-oxo-1-phenyl-1,4-dihydro-quinolin-3-ylmethyl)-4-sulfamoyl-benzamide] registered a concentration for a half-maximal effect (EC50) in assay [1] of 100000 nM. Further, it took 55 nM to reach half-maximal inhibition against JNK1 (IC50).

The compound `O=C(NCc1cn(-c2ccccc2)c2cc(Cl)ccc2c1=O)c1ccc(N2CCOCC2)nc1` [Example I-40, N-(7-Chloro-4-oxo-1-phenyl-1,4-dihydro-quinolin-3-ylmethyl)-6-morpholin-4-yl-nicotinamide] gave a concentration giving a half-maximal response (EC50) in assay [1] of 100000 nM. For the same compound, at JNK1, the concentration for half-maximal inhibition (IC50) stood at 84 nM.

`O=C(NCc1cn(-c2ccccc2)c2cc(Cl)ccc2c1=O)c1ccc(N2CC[C@@H](O)C2)nc1` [Example I-70] displayed a 50% effective concentration (EC50) in assay [1] of 33000 nM. In addition, it took 24 nM to reach half-maximal inhibition on JNK1 (IC50).

In the case of `CC(C)(C)OC(=O)N1CC2CC1CN2c1ccc(C(=O)NCc2cn(-c3ccccc3)c3cc(Cl)ccc3c2=O)cn1` (centres unmarked) [Example I-62, 5-{5-[(7-Chloro-4-oxo-1-phenyl-1,4-dihydro-quinolin-3-ylmethyl)-carbamoyl]-pyridin-2-yl}-2,5-diaza-bicyclo[2.2.1]heptane-2-carboxylic acid tert-butyl ester], the EC50 in assay [1] turned out to be 13000 nM. Moreover, at JNK1, the IC50 stood at 11 nM.

The compound `COC(=O)c1c(CNC(=O)c2ccc(-c3nnn(C)n3)cc2)c(=O)c2ccc(C(F)(F)F)nc2n1-c1ccccc1` [Example I-157, 3-{[4-(2-Methyl-2H-tetrazol-5-yl)-benzoylamino]-methyl}-4-oxo-1-phenyl-7-trifluoromethyl-1,4-dihydro-[1,8]-naphthyridine-2-carboxylic acid methyl ester] showed a half-maximal effective concentration (EC50) in assay [1] of 16000 nM. In addition, at JNK1, the IC50 was determined as 38 nM.

In the case of `O=C(NCc1cn(-c2ccccc2)c2cc(Cl)ccc2c1=O)c1ccc(N(CCO)CCO)nc1` [Example I-64, 6-[Bis-(2-hydroxy-ethyl)-amino]-N-(7-chloro-4-oxo-1-phenyl-1,4-dihydro-quinolin-3-ylmethyl)-nicotinamide], the EC50 in assay [1] was 100000 nM. On JNK1, this compound displayed a half-maximal inhibitory concentration (IC50) of 18 nM.

Regarding `O=C(NCc1cn(-c2ccccc2)c2cc(Cl)ccc2c1=O)c1ccc(N2CCN(CCO)CC2)nc1` [Example I-83, N-(7-Chloro-4-oxo-1-phenyl-1,4-dihydro-quinolin-3-ylmethyl)-6-[4-(2-hydroxy-ethyl)-piperazin-1-yl]-nicotinamide], it took 12000 nM to reach a half-maximal effect in assay [1] (EC50). 81 nM corresponded to half-maximal inhibition at JNK1 (IC50).

The compound `COC(=O)c1c(CNC(=O)c2ccc(-c3nc(C)no3)cc2)c(=O)c2ccc(Cl)cc2n1-c1ccccc1` [Example I-126, 7-Chloro-3-{[4-(3-methyl-[1,2,4]oxadiazol-5-yl)-benzoylamino]-methyl}-4-oxo-1-phenyl-1,4-dihydro-quinoline-2-carboxylic acid methyl ester] registered a half-maximal effective concentration (EC50) in assay [1] of 14000 nM. The compound further gave a half-maximal inhibitory concentration (IC50) at JNK1 of 29 nM.

As to `O=C(NCc1cn(-c2ccccc2)c2cc(Cl)ccc2c1=O)c1cnc(N2CCC(O)CC2)s1` [Example I-94, 2-(4-Hydroxypiperidin-1-yl)-thiazole-5-carboxylic acid (7-chloro-4-oxo-1-phenyl-1,4-dihydro-quinolin-3-ylmethyl)-amide], a half-maximal effect in assay [1] (EC50) was put at 14000 nM. For the same compound, the half-inhibitory concentration (IC50) against JNK1 turned out to be 36 nM.

As to `O=c1c(CNc2ncnc3cc(F)ccc23)cn(-c2ccccc2)c2cc(Cl)ccc12` [Example I-172, 7-Chloro-3-[(7-fluoro-quinazolin-4-ylamino)-methyl]-1-phenyl-1H-quinolin-4-one], in assay [1], the midpoint of the response, the EC50, lay at 100000 nM. On JNK1, this compound displayed an IC50 of 79 nM.

`COC(=O)c1c(CNC(=O)c2cccc(Cl)c2)c(=O)c2ccc(OC)cc2n1-c1ccccc1` [Example I-160, 3-[(3-Chloro-benzoylamino)-methyl]-7-methoxy-4-oxo-1-phenyl-1,4-dihydro-quinoline-2-carboxylic acid methyl ester] gave an EC50 in assay [1] of 22000 nM. The IC50 on JNK1 was 26 nM.
